Test results reported in patent US20230000870A1, “METHODS OF TREATING CANCER IN BIOMARKER-IDENTIFIED PATIENTS WITH INHIBITORS OF CYCLIN-DEPENDENT KINASE 7 (CDK7)” (Syros Pharmaceuticals, Inc., priority 2019, published 2023).

Columns and labels:
[1] = target: T1, CDK12 (aa686-1082)/Cyclin K complex (Homo sapiens, UniProt Q9NYV4); test: CDK12 kinase inhibition assay (Caliper/LabChip EZ Reader); type: biochemical; settings: CDK12 (aa686-1082)/Cyclin K 50 nM, ATP 2 mM, 3 hr at 27° C.
T1 construct: CDK12 (aa686-1082)/Cyclin K complex
Method: (§1) Compounds of the invention were assayed for inhibition of CDK7, CDK9, CDK12, and CDK2 activity at Biortus Biosciences (Jiangyin, Jiangsu Province, P.R. of China) using kinase assays for each CDK developed with a Caliper/LabChip EZ Reader (Perkin Elmer, Waltham, Mass.).
(§2) Furthermore, the CDK9 inhibition assay used CDK9/Cyclin T1 complex (8 nM) and “5-FAM-CDK9tide” peptide substrate (2 μM, synthesized fluorophore-labeled peptide with the following sequence: 5-FAM-GSRTPMY-NH2 where 5-FAM is defined above and NH2 signifies a C-terminal amide) with 10 mM MgCl2 in the buffer composition listed above. The CDK12 inhibition assay used CDK12 (aa686-1082)/Cyclin K complex (50 nM) and “5-FAM-CDK9tide” (2 μM) as defined above, with 2 mM MgCl2 in the buffer composition above. Additionally, the CDK2 inhibition assay used CDK2/Cyclin E1 complex (0.5 nM) and “5-FAM-CDK7tide” (2 μM) as defined above, with 2 mM MgCl2 in the buffer composition listed above.
(§3) The incubation period at 27° C. for each CDK inhibition assay was chosen such that the fraction of phosphorylated peptide product produced in each assay, relative to the total peptide concentration, was approximately 20% (±5%) for the uninhibited kinase (35 min. for CDK7, 35 min. for CDK2, 3 hr. for CDK12, 15 min. for CDK9).

[2] = tested on: A673 cells; test: Inhibition of proliferation of A673 cells (CyQUANT, 72 hour); type: cell-based, human; settings: read-out: Inhibition of Proliferation of A673 Cells (calculated IC50)
Method: A673 Cells: A673 cells are a cell line derived from human muscle Ewing's sarcoma. Representative compounds of the invention were tested at different concentrations (from 4 μM to […]; 0.5 log serial dilutions) for their ability to inhibit the proliferation of A673 cells. Known CDK inhibitors dinaciclib or N-((1S,3R)-3-((5-chloro-4-(1H-indol-3-yl)pyrimidin-2-yl)amino)cyclohexyl)-5-((E)-4-(dimethylamino)but-2-enamido)picolinamide and triptolide were used as positive controls. Cells were grown in Dulbecco's Modified Eagle's Medium, +10% FBS+1 mM Sodium Pyruvate. The cells were cultured at 37° C. in a humidified chamber in the presence of 5% CO2. Proliferation assays were conducted over a 72 hour time period. CyQUANT® (Life Technologies, Chicago, Ill. USA) was used to assess the anti-proliferative effects of the compounds following manufacturer's directions and utilizing the reagents supplied with the CyQUANT® kit.

[3] = target: CDK9/Cyclin T1 complex (Homo sapiens, UniProt P50750); test: CDK9 kinase inhibition assay (Caliper/LabChip EZ Reader); type: biochemical; settings: CDK9/Cyclin T1 8 nM, ATP 2 mM, 15 min at 27° C.
Method: as §1, §2, §3

[4] = target: CDK7/Cyclin H/MAT1 complex (Homo sapiens, UniProt P50613); test: CDK7 kinase inhibition assay (Caliper/LabChip EZ Reader); type: biochemical; settings: CDK7/Cyclin H/MAT1 6 nM, ATP 2 mM, 35 min at 27° C.
Method: as §1, §2, §3

[5] = target: CDK2/Cyclin E1 complex (Homo sapiens, UniProt P24941); test: CDK2 kinase inhibition assay (Caliper/LabChip EZ Reader); type: biochemical; settings: CDK2/Cyclin E1 0.5 nM, ATP 2 mM, 35 min at 27° C.
Method: as §1, §2, §3

Chain of CDK7/Cyclin H/MAT1 complex (P50613 whole entry): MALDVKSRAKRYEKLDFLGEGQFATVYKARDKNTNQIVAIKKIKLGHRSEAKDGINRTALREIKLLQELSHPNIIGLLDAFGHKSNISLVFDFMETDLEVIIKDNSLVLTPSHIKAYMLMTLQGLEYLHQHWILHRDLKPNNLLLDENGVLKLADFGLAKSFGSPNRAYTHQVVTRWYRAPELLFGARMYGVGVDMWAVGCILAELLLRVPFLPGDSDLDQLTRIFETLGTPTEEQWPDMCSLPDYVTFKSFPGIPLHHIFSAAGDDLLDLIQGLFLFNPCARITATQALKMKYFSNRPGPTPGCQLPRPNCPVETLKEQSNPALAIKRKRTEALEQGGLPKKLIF
Chain of CDK7/Cyclin H/MAT1 complex (P51946 whole entry partner): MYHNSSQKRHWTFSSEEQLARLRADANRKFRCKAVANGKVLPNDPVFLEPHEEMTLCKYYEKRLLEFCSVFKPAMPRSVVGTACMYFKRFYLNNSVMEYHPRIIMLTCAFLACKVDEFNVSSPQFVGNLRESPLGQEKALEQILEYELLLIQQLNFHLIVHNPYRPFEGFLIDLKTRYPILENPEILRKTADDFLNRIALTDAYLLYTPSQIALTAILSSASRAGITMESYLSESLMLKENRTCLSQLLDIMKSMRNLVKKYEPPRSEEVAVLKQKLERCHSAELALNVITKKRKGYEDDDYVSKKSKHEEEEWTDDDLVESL
Chain of CDK7/Cyclin H/MAT1 complex (P51948 whole entry partner): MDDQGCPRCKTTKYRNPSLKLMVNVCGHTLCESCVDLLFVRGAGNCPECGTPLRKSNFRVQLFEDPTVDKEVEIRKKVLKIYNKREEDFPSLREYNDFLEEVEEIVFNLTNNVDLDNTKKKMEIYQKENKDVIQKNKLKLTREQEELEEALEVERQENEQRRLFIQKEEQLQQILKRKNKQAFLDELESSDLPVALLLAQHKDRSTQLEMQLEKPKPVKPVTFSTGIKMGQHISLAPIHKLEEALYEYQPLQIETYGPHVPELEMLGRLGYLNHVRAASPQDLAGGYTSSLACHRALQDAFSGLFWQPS
Chain of CDK9/Cyclin T1 complex (P50750 whole entry): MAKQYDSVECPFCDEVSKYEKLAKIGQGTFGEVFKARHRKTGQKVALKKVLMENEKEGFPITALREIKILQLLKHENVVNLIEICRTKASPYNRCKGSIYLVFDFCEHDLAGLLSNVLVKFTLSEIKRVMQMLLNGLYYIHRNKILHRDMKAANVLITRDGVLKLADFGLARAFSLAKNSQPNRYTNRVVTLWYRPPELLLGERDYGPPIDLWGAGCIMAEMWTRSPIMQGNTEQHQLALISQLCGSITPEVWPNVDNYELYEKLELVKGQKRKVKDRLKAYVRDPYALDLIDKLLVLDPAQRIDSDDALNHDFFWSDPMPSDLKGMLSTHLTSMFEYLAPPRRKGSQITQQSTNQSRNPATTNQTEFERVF
Chain of CDK9/Cyclin T1 complex (O60563 whole entry partner): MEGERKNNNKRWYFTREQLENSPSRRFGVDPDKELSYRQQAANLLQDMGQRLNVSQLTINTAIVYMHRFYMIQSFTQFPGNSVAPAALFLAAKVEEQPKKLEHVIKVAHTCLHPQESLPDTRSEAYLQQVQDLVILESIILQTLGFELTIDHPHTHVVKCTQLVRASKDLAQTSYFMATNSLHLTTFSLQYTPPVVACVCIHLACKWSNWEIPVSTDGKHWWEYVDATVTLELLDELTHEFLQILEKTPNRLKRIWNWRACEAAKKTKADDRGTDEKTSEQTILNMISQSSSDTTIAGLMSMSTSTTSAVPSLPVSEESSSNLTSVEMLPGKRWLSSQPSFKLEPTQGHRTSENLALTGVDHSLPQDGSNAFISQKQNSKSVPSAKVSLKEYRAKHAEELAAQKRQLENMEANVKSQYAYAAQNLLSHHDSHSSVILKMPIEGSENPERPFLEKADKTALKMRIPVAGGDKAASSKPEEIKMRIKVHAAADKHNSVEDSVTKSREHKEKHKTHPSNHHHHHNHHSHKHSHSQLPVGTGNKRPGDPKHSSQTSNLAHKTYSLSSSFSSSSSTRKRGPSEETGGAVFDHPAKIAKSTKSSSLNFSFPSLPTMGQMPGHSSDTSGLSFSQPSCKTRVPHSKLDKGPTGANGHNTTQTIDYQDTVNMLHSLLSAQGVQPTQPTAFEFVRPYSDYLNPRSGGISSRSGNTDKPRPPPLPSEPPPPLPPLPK
T1 sequence (Q9NYV4 686-1082): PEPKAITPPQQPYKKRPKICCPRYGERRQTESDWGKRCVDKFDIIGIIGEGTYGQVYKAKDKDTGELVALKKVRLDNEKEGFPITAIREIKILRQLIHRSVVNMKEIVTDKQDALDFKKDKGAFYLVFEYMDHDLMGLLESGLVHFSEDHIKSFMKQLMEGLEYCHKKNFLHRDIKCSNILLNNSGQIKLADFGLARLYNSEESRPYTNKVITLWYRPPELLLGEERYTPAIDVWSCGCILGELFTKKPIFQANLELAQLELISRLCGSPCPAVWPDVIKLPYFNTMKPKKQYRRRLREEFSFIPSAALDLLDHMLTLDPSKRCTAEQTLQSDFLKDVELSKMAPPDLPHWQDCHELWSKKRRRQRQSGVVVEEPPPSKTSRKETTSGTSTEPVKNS
T1 sequence (O75909 whole entry partner, the tested form may be a part): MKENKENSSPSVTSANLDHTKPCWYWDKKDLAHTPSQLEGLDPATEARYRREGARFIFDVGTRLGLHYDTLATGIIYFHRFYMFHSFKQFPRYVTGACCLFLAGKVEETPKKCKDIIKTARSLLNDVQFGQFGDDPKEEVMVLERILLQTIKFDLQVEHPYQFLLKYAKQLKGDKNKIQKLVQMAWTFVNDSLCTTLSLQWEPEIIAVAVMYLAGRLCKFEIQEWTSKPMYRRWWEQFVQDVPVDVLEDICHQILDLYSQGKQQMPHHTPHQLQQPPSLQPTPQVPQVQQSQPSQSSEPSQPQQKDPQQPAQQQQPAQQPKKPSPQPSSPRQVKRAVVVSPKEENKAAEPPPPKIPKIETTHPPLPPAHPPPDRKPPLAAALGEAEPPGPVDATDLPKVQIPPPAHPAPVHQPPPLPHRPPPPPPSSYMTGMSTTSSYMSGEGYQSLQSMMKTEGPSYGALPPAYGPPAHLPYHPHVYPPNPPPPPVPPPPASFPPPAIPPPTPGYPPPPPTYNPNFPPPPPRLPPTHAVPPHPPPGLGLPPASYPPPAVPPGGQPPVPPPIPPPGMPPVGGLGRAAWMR

Row | IC50 [1] [nM] | IC50 [3] [nM] | IC50 [4] [nM] | IC50 [5] [nM] | SMILES | IC50 [2] [nM]
1 | 200 to 5000 | 200 to 5000 | < 20 | 200 to 5000 | FC(F)(F)c1cnc(N[C@H]2CCCNC2)nc1-c1c[nH]c2ccc(-c3ccnnc3)cc12 [Compound 230] | 20 to 200
2 | ≥ 5000 | ≥ 5000 | 200 to 5000 | ≥ 5000 | COc1cnc(N[C@H]2CCCNC2)nc1-c1c[nH]c2ccccc12 [Compound 189] | 200 to 5000
3 | 200 to 5000 | 200 to 5000 | < 20 | 200 to 5000 | OC1CCC(c2cccc3c(-c4nc(NC5CCCNC5)ncc4C(F)(F)F)c[nH]c23)CC1 (stereo not shown) [Compound 207] | < 20
4 | ≥ 5000 | ≥ 5000 | ≥ 5000 | ≥ 5000 | Clc1cnc(NC2CCCNC2)nc1-c1c[nH]c2cccnc12 (stereo not shown) [Compound 146] | 20 to 200
5 | 200 to 5000 | 200 to 5000 | < 20 | 200 to 5000 | CNC(=O)c1ccc2c(-c3nc(NC4CCCNC4)ncc3C(F)(F)F)c[nH]c2c1 (stereo not shown) [Compound 186] | 20 to 200
6 | 200 to 5000 | 200 to 5000 | < 20 | 200 to 5000 | CCC(=O)NC1CNCC(Nc2ncc(C(F)(F)F)c(-c3c[nH]c4c(S(C)(=O)=O)cccc34)n2)C1 (stereo not shown) [Compound 259] | 20 to 200
7 | ≥ 5000 | ≥ 5000 | 200 to 5000 | ≥ 5000 | CC1(C)CCNC[C@@H]1Nc1ncc(C(F)(F)F)c(-c2c[nH]c3ccccc23)n1 [Compound 209] | 20 to 200
8 | ≥ 5000 | ≥ 5000 | ≥ 5000 | ≥ 5000 | CCc1cnc(NC2CCCNC2)nc1-c1c[nH]c2ncc(F)cc12 (stereo not shown) [Compound 231] | 200 to 5000
9 | 200 to 5000 | 200 to 5000 | < 20 | 200 to 5000 | C=Cc1cnc(NC2CCCNC2)nc1-c1c[nH]c2ccccc12 (stereo not shown) [Compound 218] | 20 to 200
10 | 200 to 5000 | 200 to 5000 | < 20 | 200 to 5000 | O=S1(=O)CCN(c2cccc3c(-c4nc(NC5CCCNC5)ncc4Cl)c[nH]c23)CC1 (stereo not shown) [Compound 196] | 20 to 200
11 | 200 to 5000 | 200 to 5000 | < 20 | 200 to 5000 | Clc1cnc(NC2CCCNC2)nc1-c1c[nH]c2ccccc12 (stereo not shown) [Compound 100] | < 20

Continued, molecule first:

Row | SMILES | IC50 [1] [nM] | IC50 [3] [nM] | IC50 [4] [nM] | IC50 [5] [nM] | IC50 [2] [nM]
12 | Fc1cc2[nH]cc(-c3nc(NC4CCCNC4)ncc3C(F)(F)F)c2cc1F (stereo not shown) [Compound 184] | 20 to 200 | 20 to 200 | < 20 | 20 to 200 | < 20
13 | CCOP(C)(=O)c1cccc2c(-c3nc(NC4CCCNC4)ncc3C(F)(F)F)c[nH]c12 (stereo not shown) [Compound 179] | 200 to 5000 | 200 to 5000 | < 20 | 200 to 5000 | < 20
14 | CNC(=O)C1CNCC(Nc2ncc(C(F)(F)F)c(-c3c[nH]c4ccccc34)n2)C1 (stereo not shown) [Compound 253] | 20 to 200 | 200 to 5000 | < 20 | 20 to 200 | 20 to 200
15 | CNC(=O)C1CNCC(Nc2ncc(C(F)(F)F)c(-c3c[nH]c4ccccc34)n2)C1 (stereo not shown) [Compound 256] | 200 to 5000 | ≥ 5000 | 20 to 200 | 200 to 5000 | 200 to 5000
16 | C#Cc1cnc(NC2CCCNC2)nc1-c1c[nH]c2ccccc12 (stereo not shown) [Compound 194] | 200 to 5000 | 200 to 5000 | < 20 | 200 to 5000 | < 20
17 | N#Cc1ccc2[nH]cc(-c3nc(NC4CCCNC4)ncc3C(F)(F)F)c2c1 (stereo not shown) [Compound 169] | 200 to 5000 | ≥ 5000 | 20 to 200 | ≥ 5000 | 200 to 5000
18 | CC(C)c1cnc(N[C@H]2CCCNC2)nc1-c1n[nH]c2nc(C#N)ccc12 [Compound 276] | ≥ 5000 | ≥ 5000 | 20 to 200 | ≥ 5000 | 200 to 5000
19 | CS(=O)(=O)c1cccn2c(C3CNCC(Nc4ncc(C(F)(F)F)c(-c5c[nH]c6ccccc56)n4)C3)nnc12 (stereo not shown) [Compound 265] | 200 to 5000 | 200 to 5000 | 200 to 5000 | 200 to 5000 | 20 to 200
20 | CC1(C)CNC[C@@H](Nc2ncc(C(F)(F)F)c(-c3c[nH]c4ccccc34)n2)C1 [Compound 243] | 20 to 200 | 200 to 5000 | < 20 | 200 to 5000 | < 20
21 | Clc1cnc(NC2CCCNC2)nc1-c1c[nH]c2ccc(N3CCOCC3)cc12 (stereo not shown) [Compound 151] | ≥ 5000 | ≥ 5000 | 200 to 5000 | ≥ 5000 | 20 to 200
22 | COCCN1CCCC(Nc2ncc(Cl)c(-c3c[nH]c4ccccc34)n2)C1 (stereo not shown) [Compound 149] | 200 to 5000 | 200 to 5000 | 20 to 200 | 200 to 5000 | 20 to 200
23 | FC(F)(F)c1cnc(NC2CNCC(c3nnc4ccccn34)C2)nc1-c1c[nH]c2ccccc12 (stereo not shown) [Compound 266] | 200 to 5000 | 200 to 5000 | 20 to 200 | 200 to 5000 | 20 to 200
24 | CC1(Nc2ncc(Cl)c(-c3c[nH]c4ccccc34)n2)CCCNC1 (stereo not shown) [Compound 115] | ≥ 5000 | ≥ 5000 | 200 to 5000 | ≥ 5000 | 200 to 5000
25 | Clc1cnc(N[C@H]2CN3CCC2CC3)nc1-c1c[nH]c2ccccc12 [Compound 134] | ≥ 5000 | ≥ 5000 | ≥ 5000 | ≥ 5000 | 200 to 5000
26 | CCS(=O)(=O)c1ccc2c(-c3nc(NC4CCCNC4)ncc3C(F)(F)F)c[nH]c2c1 (stereo not shown) [Compound 274] | 200 to 5000 | 200 to 5000 | < 20 | 200 to 5000 | 20 to 200
27 | Cc1nc(-c2ccc3c(-c4nc(NC5CCCNC5)ncc4C(F)(F)F)c[nH]c3c2)n[nH]1 (stereo not shown) [Compound 235] | 200 to 5000 | 200 to 5000 | < 20 | 200 to 5000 | 200 to 5000
28 | Fc1cccc2c(-c3nc(NC4CCCNC4)ncc3Cl)n[nH]c12 (stereo not shown) [Compound 155] | 200 to 5000 | 200 to 5000 | 20 to 200 | 200 to 5000 | < 20
29 | CC1(C)CCNC[C@H]1Nc1ncc(C(F)(F)F)c(-c2c[nH]c3ccccc23)n1 [Compound 210] | ≥ 5000 | ≥ 5000 | 200 to 5000 | ≥ 5000 | 200 to 5000
30 | FCCc1cnc(NC2CCCNC2)nc1-c1c[nH]c2ccccc12 (stereo not shown) [Compound 206] | 200 to 5000 | 200 to 5000 | 20 to 200 | ≥ 5000 | 200 to 5000
31 | N#Cc1cc2[nH]cc(-c3nc(NC4CCCNC4)ncc3C(F)(F)F)c2cc1F (stereo not shown) [Compound 197] | 200 to 5000 | 200 to 5000 | < 20 | 200 to 5000 | < 20
32 | COCCn1cc(-c2nc(NC3CCCNC3)ncc2Cl)c2ccccc21 (stereo not shown) [Compound 122] | ≥ 5000 | 200 to 5000 | 200 to 5000 | ≥ 5000 | 200 to 5000
33 | FC1CCNCC1Nc1ncc(Cl)c(-c2c[nH]c3ccccc23)n1 (stereo not shown) [Compound 121] | 200 to 5000 | 200 to 5000 | 20 to 200 | 200 to 5000 | 20 to 200
34 | OC1CCNCC1Nc1ncc(Cl)c(-c2c[nH]c3ccccc23)n1 (stereo not shown) [Compound 113] | 200 to 5000 | ≥ 5000 | 20 to 200 | ≥ 5000 | 200 to 5000
35 | CC(O)c1cnc(NC2CCCNC2)nc1-c1c[nH]c2ccccc12 (stereo not shown) [Compound 238] | ≥ 5000 | ≥ 5000 | 200 to 5000 | ≥ 5000 | 200 to 5000
